Results from patent US9302999B2, “Substituted triazoles as herbicides” (E. I. DU PONT DE NEMOURS AND COMPANY, priority 2012, dated 2016).

Tests used:
Assay type in all cases: in vivo
[1] = test system: Russian thistle (Salsola kali); assay: Test C pre-/postemergence: Russian thistle; conditions: Preemergence
How it was run: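 Preemergence on seeds in loam/sand, postemergence on 2–18 cm (1–4-leaf) plants in peat-based medium; compounds in non-phytotoxic solvent with surfactant. After 13–15 days in greenhouse, visual rating versus controls, 0 (no effect) to 100 (complete control).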

[2] = test system: lambsquarters (Chenopodium album); assay: Test F pre-/postemergence: lambsquarters; conditions: Preemergence
How it was run: (§1)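 Visual response scores, 0 meaning no effect and 100 complete control, were assigned against untreated controls 14 to 21 days after treatment. Test chemicals in a surfactant-containing non-phytotoxic solvent were applied preemergence to seeded silt loam soil or postemergence to 2–18 cm plants in peat-based medium.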

[3] = test system: foxtail, green (green foxtail Setaria viridis); assay: Test F pre-/postemergence: foxtail, green; conditions: Preemergence
How it was run: as §1

[4] = test system: dayflower, VA (Virginia (VA) dayflower, Commelina virginica); assay: Test F pre-/postemergence: dayflower, VA
How it was run: as §1

[5] = test system: beggarticks (hairy beggarticks, Bidens pilosa); assay: Test F pre-/postemergence: beggarticks
How it was run: as §1

[6] = 250 g ai/ha, scale 0 to 100, 0 no effect, 100 complete control
[7] = 16 g ai/ha, scale 0 to 100, 0 no effect, 100 complete control
[8] = 31 g ai/ha, scale 0 to 100, 0 no effect, 100 complete control
[9] = Preemergence, 16 g ai/ha, scale 0 to 100, 0 no effect, 100 complete control
[10] = Preemergence, 31 g ai/ha, scale 0 to 100, 0 no effect, 100 complete control
[11] = Preemergence, 62 g ai/ha, scale 0 to 100
[12] = Preemergence, 125 g ai/ha, scale 0 to 100
[13] = Preemergence, 250 g ai/ha, scale 0 to 100
[14] = 62 g ai/ha, scale of 0 to 100, 0 is no effect, 100 is complete control
[15] = 125 g ai/ha, scale 0 to 100, 0 no effect, 100 complete control
[16] = 8 g ai/ha, scale 0 to 100, 0 no effect, 100 complete control
[17] = Postemergence, 8 g ai/ha, scale 0 to 100
[18] = Postemergence, 16 g ai/ha, scale 0 to 100
[19] = Postemergence, 31 g ai/ha, scale 0 to 100
[20] = Postemergence, 62 g ai/ha, scale 0 to 100
[21] = Postemergence, 125 g ai/ha, scale 0 to 100
[22] = Preemergence, 8 g ai/ha, scale 0 to 100, 0 no effect, 100 complete control

## COc1nn(-c2cccc(F)c2)nc1Cc1ccnc(C(F)(F)F)c1 [Compound 139]
[1]; [6]
  Plant response rating, Russian Thistle: 5
[2]; [7]
  Plant response rating, Lambsquarters: 0
[2]; [8]
  Plant response rating, Lambsquarters: 20
[2]; 62 g ai/ha, scale 0 to 100
  Plant response rating, Lambsquarters: 65
[2]; 125 g ai/ha, scale 0 to 100
  Plant response rating, Lambsquarters: 90
[2]; 250 g ai/ha, scale 0 to 100
  Plant response rating, Lambsquarters: 98
[3]; [7]
  Plant response rating, Foxtail, Green: 10
[3]; [8]
  Plant response rating, Foxtail, Green: 35
[3]; 62 g ai/ha, scale 0 to 100
  Plant response rating, Foxtail, Green: 98
[3]; 125 g ai/ha, scale 0 to 100
  Plant response rating, Foxtail, Green: 100
[3]; 250 g ai/ha, scale 0 to 100
  Plant response rating, Foxtail, Green: 100
[4]; [9]
  Plant response rating, Dayflower, VA: 0
[4]; [10]
  Plant response rating, Dayflower, VA: 5
[4]; [11]
  Plant response rating, Dayflower, VA: 30
[4]; [12]
  Plant response rating, Dayflower, VA: 60
[4]; [13]
  Plant response rating, Dayflower, VA: 65
[5]; [9]
  Plant response rating, Beggarticks: 0
[5]; [10]
  Plant response rating, Beggarticks: 0
[5]; [11]
  Plant response rating, Beggarticks: 0
[5]; [12]
  Plant response rating, Beggarticks: 0
[5]; [13]
  Plant response rating, Beggarticks: 0

## Cc1nn(-c2ccc(F)cc2F)nc1Oc1ccnc(C(F)(F)F)c1 [Compound 146]
[1]; 31 g ai/ha, scale of 0 to 100, 0 is no effect, 100 is complete control
  Plant response rating, Russian Thistle: 0
[1]; [14]
  Plant response rating, Russian Thistle: 0
[1]; [15]
  Plant response rating, Russian Thistle: 80
[1]; [6]
  Plant response rating, Russian Thistle: 95
[2]; [7]
  Plant response rating, Lambsquarters: 0
[2]; [8]
  Plant response rating, Lambsquarters: 0
[2]; 62 g ai/ha, scale 0 to 100
  Plant response rating, Lambsquarters: 40
[2]; 125 g ai/ha, scale 0 to 100
  Plant response rating, Lambsquarters: 98
[2]; 250 g ai/ha, scale 0 to 100
  Plant response rating, Lambsquarters: 98
[3]; [7]
  Plant response rating, Foxtail, Green: 20
[3]; [8]
  Plant response rating, Foxtail, Green: 20
[3]; 62 g ai/ha, scale 0 to 100
  Plant response rating, Foxtail, Green: 50
[3]; 125 g ai/ha, scale 0 to 100
  Plant response rating, Foxtail, Green: 100
[3]; 250 g ai/ha, scale 0 to 100
  Plant response rating, Foxtail, Green: 100
[4]; [9]
  Plant response rating, Dayflower, VA: 0
[4]; [10]
  Plant response rating, Dayflower, VA: 0
[4]; [11]
  Plant response rating, Dayflower, VA: 10
[4]; [12]
  Plant response rating, Dayflower, VA: 35
[4]; [13]
  Plant response rating, Dayflower, VA: 35
[5]; [9]
  Plant response rating, Beggarticks: 0
[5]; [10]
  Plant response rating, Beggarticks: 0
[5]; [11]
  Plant response rating, Beggarticks: 0
[5]; [12]
  Plant response rating, Beggarticks: 0
[5]; [13]
  Plant response rating, Beggarticks: 0

## Cc1nn(-c2ccc(C(F)(F)F)c(F)c2)nc1Oc1ccnc(C(F)(F)F)c1 [Compound 148]
[1]; [14]
  Plant response rating, Russian Thistle: 85
[1]; [15]
  Plant response rating, Russian Thistle: 95
[1]; [6]
  Plant response rating, Russian Thistle: 95
[2]; [7]
  Plant response rating, Lambsquarters: 0
[2]; [8]
  Plant response rating, Lambsquarters: 50
[2]; 62 g ai/ha, scale 0 to 100
  Plant response rating, Lambsquarters: 98
[2]; 125 g ai/ha, scale 0 to 100
  Plant response rating, Lambsquarters: 100
[2]; 250 g ai/ha, scale 0 to 100
  Plant response rating, Lambsquarters: 100
[3]; [7]
  Plant response rating, Foxtail, Green: 35
[3]; [8]
  Plant response rating, Foxtail, Green: 100
[3]; 62 g ai/ha, scale 0 to 100
  Plant response rating, Foxtail, Green: 100
[3]; 125 g ai/ha, scale 0 to 100
  Plant response rating, Foxtail, Green: 100
[3]; 250 g ai/ha, scale 0 to 100
  Plant response rating, Foxtail, Green: 100
[4]; [9]
  Plant response rating, Dayflower, VA: 0
[4]; [10]
  Plant response rating, Dayflower, VA: 40
[4]; [11]
  Plant response rating, Dayflower, VA: 40
[4]; [12]
  Plant response rating, Dayflower, VA: 65
[4]; [13]
  Plant response rating, Dayflower, VA: 90
[5]; [9]
  Plant response rating, Beggarticks: 0
[5]; [10]
  Plant response rating, Beggarticks: 0
[5]; [11]
  Plant response rating, Beggarticks: 0
[5]; [12]
  Plant response rating, Beggarticks: 0
[5]; [13]
  Plant response rating, Beggarticks: 0

## CCOc1nn(-c2ccc(F)cc2)nc1Cc1ccnc(C(F)(F)F)c1 [Compound 196, 4-[[5-ethoxy-2-(4-fluorophenyl)-2H-1,2,3-triazol-4-yl]methyl]-2-(trifluoromethyl)pyridine]
[1]; 31 g ai/ha, scale 0 (no effect) to 100 (complete control)
  Plant response rating, Russian Thistle: 90
[1]; 62 g ai/ha, scale 0 to 100, 0 no effect, 100 complete control
  Plant response rating, Russian Thistle: 90
[1]; [15]
  Plant response rating, Russian Thistle: 90
[1]; [6]
  Plant response rating, Russian Thistle: 90
[2]; [16]
  Plant response rating, Lambsquarters: 60
[2]; [7]
  Plant response rating, Lambsquarters: 70
[2]; [8]
  Plant response rating, Lambsquarters: 80
[2]; 62 g ai/ha, scale 0 to 100
  Plant response rating, Lambsquarters: 95
[2]; 125 g ai/ha, scale 0 to 100
  Plant response rating, Lambsquarters: 98
[3]; [16]
  Plant response rating, Foxtail, Green: 75
[3]; [7]
  Plant response rating, Foxtail, Green: 75
[3]; [8]
  Plant response rating, Foxtail, Green: 85
[3]; 62 g ai/ha, scale 0 to 100
  Plant response rating, Foxtail, Green: 100
[3]; 125 g ai/ha, scale 0 to 100
  Plant response rating, Foxtail, Green: 100
[4]; [17]
  Plant response rating, Dayflower, VA: 30
[4]; [18]
  Plant response rating, Dayflower, VA: 50
[4]; [19]
  Plant response rating, Dayflower, VA: 60
[4]; [20]
  Plant response rating, Dayflower, VA: 60
[4]; [21]
  Plant response rating, Dayflower, VA: 70
[4]; [22]
  Plant response rating, Dayflower, VA: 5
[4]; [9]
  Plant response rating, Dayflower, VA: 35
[4]; [10]
  Plant response rating, Dayflower, VA: 35
[4]; [11]
  Plant response rating, Dayflower, VA: 50
[4]; [12]
  Plant response rating, Dayflower, VA: 65
[5]; [17]
  Plant response rating, Beggarticks: 50
[5]; [18]
  Plant response rating, Beggarticks: 60
[5]; [19]
  Plant response rating, Beggarticks: 60
[5]; [20]
  Plant response rating, Beggarticks: 60
[5]; [21]
  Plant response rating, Beggarticks: 70
[5]; [22]
  Plant response rating, Beggarticks: 0
[5]; [9]
  Plant response rating, Beggarticks: 50
[5]; [10]
  Plant response rating, Beggarticks: 50
[5]; [11]
  Plant response rating, Beggarticks: 50
[5]; [12]
  Plant response rating, Beggarticks: 65
